We go through 37 compounds from BindingDB's records for doi:10.7270/Q2930RT9 (The Scripps Research Institute Molecular Screening Center, 2014).

The term IC50 denotes the concentration at which inhibition is half-maximal. Low values mean greater potency, high ones weaker potency.

The experiment has as its target T1, Disintegrin and metalloproteinase domain-containing protein 10 (Homo sapiens, UniProt O14672).
T1 sequence (O14672 whole entry): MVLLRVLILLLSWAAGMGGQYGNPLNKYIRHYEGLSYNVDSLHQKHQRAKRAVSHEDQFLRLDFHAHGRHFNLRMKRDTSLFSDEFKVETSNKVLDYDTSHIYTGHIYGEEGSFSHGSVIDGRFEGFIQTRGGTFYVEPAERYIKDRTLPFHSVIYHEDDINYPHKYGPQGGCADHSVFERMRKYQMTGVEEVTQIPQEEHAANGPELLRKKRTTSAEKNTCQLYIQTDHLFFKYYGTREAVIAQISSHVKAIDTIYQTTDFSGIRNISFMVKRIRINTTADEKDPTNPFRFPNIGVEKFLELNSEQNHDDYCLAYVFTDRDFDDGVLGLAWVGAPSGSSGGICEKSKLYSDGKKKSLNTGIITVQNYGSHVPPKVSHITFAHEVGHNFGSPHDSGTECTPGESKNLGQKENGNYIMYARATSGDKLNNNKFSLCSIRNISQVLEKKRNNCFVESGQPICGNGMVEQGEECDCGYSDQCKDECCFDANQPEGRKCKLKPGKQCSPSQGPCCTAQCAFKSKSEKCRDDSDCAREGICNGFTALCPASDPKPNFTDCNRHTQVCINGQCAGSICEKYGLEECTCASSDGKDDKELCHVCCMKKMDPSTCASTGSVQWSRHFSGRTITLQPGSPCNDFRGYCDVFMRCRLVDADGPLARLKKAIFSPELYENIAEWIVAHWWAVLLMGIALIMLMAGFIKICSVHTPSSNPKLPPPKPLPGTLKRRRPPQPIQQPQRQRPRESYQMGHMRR
Description: potency of ADAM10 substrate cleavage blockers – biochemical, QFRET, dose response (AID 743254).
For the compound `O=c1[nH]c(=O)n(-c2ccc(Br)cc2)c(O)c1C=NCCN1CCCCC1`, it took 11.7 µM to reach half-maximal inhibition (IC50).

With `O=C1/C(=C/c2cccs2)SC(=S)N1NS(=O)(=O)c1ccccc1`, the concentration for half-maximal inhibition (IC50) turned out to be 69.5 µM. To `CCCNc1c(F)c(F)c2c(C)c3ccccc3nc2c1F` [1,2,4-trifluoro-9-methyl-N-propyl-3-acridinamine] belongs 69.5 µM. The compound `Cn1nc(-c2ccccn2)nc2c(=O)n(C)c(=O)nc1-2` [1,6-dimethyl-3-(2-pyridinyl)pyrimido[5,4-e][1,2,4]triazine-5,7(1H,6H)-dione] displayed a half-inhibitory concentration (IC50) of 69.5 µM. The value for `N#CCSc1nc2cc(C(=O)N3CCC(C(N)=O)CC3)ccc2c2nc3ccccc3n12` [1-({6-[(cyanomethyl)thio]benzimidazo[1,2-c]quinazolin-3-yl}carbonyl)piperidine-4-carboxamide] was 18.2 µM. In the case of `N#Cc1c(Cl)nc(N=NCc2ccccc2)c(Cl)c1Cl` [2,4,5-tris(chloranyl)-6-[(2E)-2-(phenylmethylidene)hydrazinyl]pyridine-3-carbonitrile], inhibition was half-maximal at 69.5 µM (IC50).

`Cc1ccc(OCC(=O)Nc2nnc[nH]2)c(Br)c1` [2-(2-bromanyl-4-methyl-phenoxy)-N-(1H-1,2,4-triazol-5-yl)ethanamide] displayed an IC50 of 7.45 µM. To `Cc1cccc(S(=O)(=O)C(C#N)c2nc3ccccc3nc2N2CCOCC2)c1` (configuration not stated) [2-(3-methylphenyl)sulfonyl-2-(3-morpholin-4-ylquinoxalin-2-yl)acetonitrile] belongs 69.5 µM; to `Cc1cccc(Oc2nc(-c3ccccn3)nc3ccccc23)c1` [2-Pyridin-2-yl-4-m-tolyloxy-quinazoline], 69.5 µM; to `CCOC(=O)Cc1csc(NC(=O)c2sc3nc4cc(C)ccc4cc3c2N)n1` [2-[2-[(3-amino-7-methyl-thieno[2,3-b]quinoline-2-carbonyl)amino]thiazol-4-yl]acetic acid ethyl ester], 7.72 µM. On to `O=C1c2ccccc2C(=O)N1CCCc1nc(-c2ccncc2)no1` [2-[3-(3-pyridin-4-yl-1,2,4-oxadiazol-5-yl)propyl]isoindole-1,3-dione], for which half-maximal inhibition (IC50) was put at 37.6 µM.

`Cc1cc(/C=C(/C#N)c2nc3ccccc3[nH]2)c(C)n1-c1ccccc1C(=O)O` [2-[3-[(Z)-2-(1H-benzimidazol-2-yl)-2-cyanoethenyl]-2,5-dimethylpyrrol-1-yl]benzoic acid]: the midpoint of inhibition, the IC50, lay at 12.5 µM. The value for `O=C(CC1CCCCC1)Nc1nc[nH]n1` [2-cyclohexyl-N-(1H-1,2,4-triazol-5-yl)ethanamide] was 69.5 µM; that for `Oc1cc(N(CCc2ccccc2)C(=S)Nc2cc(Cl)ccc2Cl)c(O)n1-c1c(Cl)cccc1Cl` [3-[2,5-bis(chloranyl)phenyl]-1-[1-[2,6-bis(chloranyl)phenyl]-2,5-bis(oxidanylidene)pyrrolidin-3-yl]-1-(2-phenylethyl)thiourea] was 69.5 µM.

On to `O=C(O)CCc1ccc(-c2ccccc2)n1-c1cccc(C(=O)O)c1` [3-[2-(2-carboxyethyl)-5-phenyl-1-pyrrolyl]benzoic acid], for which the IC50 is 9.61 µM. The compound `Cc1cc(C=C2C(=O)NC(=O)N(c3ccc(F)cc3)C2=O)c(C)n1-c1cccc(C(=O)O)c1` [3-[3-[(E)-[1-(4-fluorophenyl)-2,4,6-tris(oxidanylidene)-1,3-diazinan-5-ylidene]methyl]-2,5-dimethyl-pyrrol-1-yl]benzoic acid] showed a half-maximal inhibitory concentration (IC50) of 19.4 µM. As for `COc1cc(CN=O)cc(Br)c1OCc1ccc(Cl)cc1` [3-bromo-4-[(4-chlorobenzyl)oxy]-5-methoxybenzaldehyde oxime], the midpoint of inhibition, the IC50, lay at 69.5 µM. Regarding `C(=CN=Nc1nc2ccccc2s1)Cc1ccccc1` [3-phenylacrylaldehyde 1,3-benzothiazol-2-ylhydrazone], half-maximal inhibition (IC50) was put at 69.5 µM.

On to `Cc1ccc(NCC(=O)NN=Cc2ccc(C(=O)O)cc2)cc1` [4-[[2-[(4-methylphenyl)amino]ethanoylhydrazinylidene]methyl]benzoic acid], for which the half-maximal inhibitory concentration (IC50) turned out to be 15.6 µM.

As to `O=c1[nH][nH]c2cc(=O)n(-c3ccc(Cl)cc3)nc12` [5-(4-chlorophenyl)-1,2-dihydropyrazolo[4,3-c]pyridazine-3,6-dione], the 50% inhibitory concentration (IC50) is 10.1 µM. To `CSc1nsc2nc(=O)c(/C=C3\C=Nc4ccccc43)c(N)n12` [5-amino-6-[(Z)-3-indolylidenemethyl]-3-(methylthio)-[1,2,4]thiadiazolo[4,5-a]pyrimidin-7-one] belongs 7.43 µM; to `CN1C(=O)C(=CNCCCCCCCCCCC(=O)O)C(=O)N(C)C1=O` [11-[[1,3-dimethyl-2,4,6-tris(oxidanylidene)-1,3-diazinan-5-ylidene]methylamino]undecanoic acid], 13.1 µM; to `COc1ccc(N=C(C)c2sc3ccccc3c2O)cc1` [(2Z)-2-[1-(4-methoxyanilino)ethylidene]-1-benzothiophen-3-one], 24 µM. The value for `CC(/C=C1\N=C(SCc2ccccc2Cl)SC1=O)=C\c1ccccc1` [(4Z)-2-[(2-chlorophenyl)methylsulfanyl]-4-[(E)-2-methyl-3-phenyl-prop-2-enylidene]-1,3-thiazol-5-one] was 12 µM; that for `COc1ccc(N2C(=O)NC(=O)C(=Cc3c[nH]c4ccc(Br)cc34)C2=O)c(OC)c1` [(5E)-5-[(5-bromo-1H-indol-3-yl)methylene]-1-(2,4-dimethoxyphenyl)pyrimidine-2,4,6(1H,3H,5H)-trione] was 5.44 µM. Turning to `O=C1OCCN1C(=O)C1=[N+](c2ccc(Br)cc2)N[C-](c2ccc(F)cc2)[C@H]1c1ccc([N+](=O)[O-])cc1` [MLS000517953], the IC50 came out at 18.5 µM. `O=C1OCCN1C(=O)C1=[N+](c2ccc(Br)cc2)N[C-](c2cccc(Cl)c2)[C@H]1c1ccc([N+](=O)[O-])cc1` [MLS000517955] displayed an IC50 of 21.4 µM. To `Fc1c(F)c(C(F)(F)F)c(F)c(F)c1N=NCc1cccs1` [MLS000533109] belongs 69.5 µM. The value for `O=C1C=CC([N+](=O)[O-])=CC1CN=Nc1ccccn1` (configuration not stated) [MLS000585015] was 27.5 µM; that for `Cc1nnc(=O)[nH]c1N=NCC1C=CC(=O)C([N+](=O)[O-])=C1` (configuration not stated) [MLS000585487] was 69.5 µM; that for `O=C(Cn1cncn1)NN=Cc1c2ccccc2cc2ccccc12` [N-(9-anthracenylmethylideneamino)-2-(1,2,4-triazol-1-yl)acetamide] was 69.5 µM. The value for `COc1cc(OC)c(C2C3=C(CC(C)(C)CC3=O)OC(=N)C2C#N)cc1OC` (configuration not stated) [SMR000054706] was 8.8 µM; that for `CC(C)C1Nc2ccc(S(N)(=O)=O)cc2C2C=CCC21` (configuration not stated) [SMR000070348] was 13.3 µM; that for `COc1ccc(C=CC(=O)c2c(O)n(CCC3=CCCCC3)c(=O)[nH]c2=O)cc1OC` [SMR000221147] was 69.5 µM.

On to `COc1ccc(-c2nnc(SCC(=O)Nc3cc(S(=O)(=O)N4CCCCC4)ccc3Cl)n2N)cc1` [SMR000243460], for which inhibition was half-maximal at 7.72 µM (IC50). The value for `COC(=O)c1ccc(-n2c(C)cc(CN=Nc3nc(C)cc(=O)[nH]3)c2C)cc1` [SMR000364461] was 69.5 µM. To `COC(=O)CCCC1=CC2=CC(=O)C(C)(OC(=O)C3CCCC3)C(=O)C2=CO1` (configuration not stated) [SMR000452591] belongs 7.23 µM.
